{
  "source": "patent US11583515B2",
  "about": "“Composition and method for rapidly inducing an endogenous ketosis” (priority 2015, dated 2023)",
  "origin": "cited, not measured here",
  "key": {"[1]": {"conditions": "in vivo"}, "muscle cells": {"system": "muscle cells", "conditions": "with and without the presence of insulin or exercise"}, "[2]": {"conditions": "racemic mixture of R and S enantiomers, taken orally"}, "[3]": {"system": "insulin signaling cascade", "conditions": "600, 1200, and 1800 mg daily for four weeks; individuals with impaired insulin signaling cascades"}},
  "data": [
    {"compound": "beta-hydroxybutyrate salts", "values": [
      {"measurement": "effect on triglycerides or total cholesterol", "setting": "Dawley rats; after four weeks of repeated daily ingestion", "value": "no effect"},
      {"measurement": "effect on blood glucose numbers", "setting": "Dawley rats; orally supplemented, 28 days", "value": "improved"},
      {"measurement": "effect to promote weight loss", "setting": "Dawley rats; orally supplemented, 28 days", "value": "no effect"},
      {"measurement": "blood level of beta-hydroxybutyrate, acetoacetate, and acetone", "setting": "Dawley rats; supplementation", "value": "increases"}
    ]},
    {"compound": "[Cr]", "note": "[Chromium]", "values": [
      {"measurement": "absorption, share of an ingested dose", "setting": "[1]", "value": "1-2%"},
      {"measurement": "complete plasma clearance half-life", "setting": "[1]", "value": "8 to 12", "unit": "h"},
      {"measurement": "rate of cellular glucose uptake", "setting": "muscle cells", "value": "several times normal"},
      {"measurement": "doses used without any reported adverse effects", "setting": "chromium containing supplements", "value": "up to 1000 mcg"}
    ]},
    {"compound": "O=C(O)CCCCC1CCSS1", "note": "(racemic) [Alpha Lipoic acid, 1,2-dithiolane-3-pentanoic acid]", "values": [
      {"measurement": "bioavailability after absorption", "setting": "[2]", "value": "~30", "unit": "%"},
      {"measurement": "complete plasma clearance", "setting": "[2]", "value": "approximately three hours"},
      {"measurement": "half-life", "setting": "[2]", "value": "thirty minutes to one and one half hours"},
      {"measurement": "improvement of effectiveness of the signaling cascade on glucose uptake and utilization", "setting": "[3]", "value": 25, "unit": "%"},
      {"measurement": "effect on mother or child", "setting": "2014 study, treating peripheral neuropathy during pregnancy", "value": "no harmful effect"},
      {"measurement": "safety of supplementation", "setting": "animal or human studies, various ranges of intake, large doses or extended use", "value": "safe with no widespread serious or life-threatening reactions reported"}
    ]}
  ]
}
